# Molecular target: T1, PPARγ (Homo sapiens, UniProt P37231)
# T1 construct: made in house
# T1 sequence (P37231 1-505): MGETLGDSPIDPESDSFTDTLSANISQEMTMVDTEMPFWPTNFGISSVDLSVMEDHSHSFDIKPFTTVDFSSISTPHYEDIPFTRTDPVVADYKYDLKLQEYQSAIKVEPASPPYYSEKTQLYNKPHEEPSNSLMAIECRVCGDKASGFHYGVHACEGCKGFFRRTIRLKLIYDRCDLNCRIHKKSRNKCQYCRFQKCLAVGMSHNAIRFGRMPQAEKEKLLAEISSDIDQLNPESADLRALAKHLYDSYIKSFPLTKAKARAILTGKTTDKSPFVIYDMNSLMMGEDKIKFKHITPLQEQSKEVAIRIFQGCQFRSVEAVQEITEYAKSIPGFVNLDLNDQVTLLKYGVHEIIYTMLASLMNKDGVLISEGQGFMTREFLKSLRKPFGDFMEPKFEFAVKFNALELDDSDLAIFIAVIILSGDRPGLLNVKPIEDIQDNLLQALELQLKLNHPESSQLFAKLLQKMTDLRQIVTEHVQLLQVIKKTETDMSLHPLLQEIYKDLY
# Test: PPARγ ligand binding assay utilizing [3H]-BRL 49653 as the radioligand (filtration)
# Settings: concentration required to reduce by 50% the specific binding of [3H]-BRL 49653
# Procedure, shortened: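 Displacement of 10 nM [3H]-BRL 49653 from PPARγ-GST fusion protein in Tris-HCl pH 8.0 buffer with KCl, DTT, BSA and NP-40, 15 min incubation, then glutathione-bead capture for 1 h. Bound radioactivity counted after filtration washes; IC50 is concentration giving 50% loss of specific binding, reported in ranges.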
row,IC50 [nM],SMILES
1,< 1000,"CCCCc1nc(NS(=O)(=O)c2ccc(Cl)cc2Cl)ccc1Sc1ccc(S(=O)(=O)N2CCCCC2)cc1 [Compound 122, N-{6-Butyl-5-[4-(piperidine-1-sulfonyl)-phenylsulfanyl]-pyridin-2-yl}-2,4-dichloro-benzenesulfonamide]"
2,< 1000,"CC(C)CNc1nc(NS(=O)(=O)c2ccc(Cl)cc2Cl)ncc1Sc1ccc(S(=O)(=O)N2CCCCC2)cc1 [Compound 20, 2,4-Dichloro-N-{4-isobutylamino-5-[4-(piperidine-1-sulfonyl)-phenylsulfanyl]-pyrimidin-2-yl}-benzenesulfonamide]"
3,< 1000,"CCCCc1nc(NS(=O)(=O)c2ccc(C(F)(F)F)cc2Cl)ccc1Sc1ccc(S(=O)(=O)N2CCCCC2)cc1 [Compound 123, N-{6-Butyl-5-[4-(piperidine-1-sulfonyl)-phenylsulfanyl]-pyridin-2-yl}-2-chloro-4-trifluoromethyl-benzenesulfonamide]"
4,< 1000,"O=C(c1nc(NS(=O)(=O)c2ccc(C(F)(F)F)cc2Cl)ccc1Sc1ccc(S(=O)(=O)N2CCCC2)cc1)C1CC1 [Compound 98, 2-Chloro-N-{6-cyclopropanecarbonyl-5-[4-(pyrrolidine-1-sulfonyl)-phenylsulfanyl]-pyridin-2-yl}-4-trifluoromethyl-benzenesulfonamide]"
5,< 1000,"CCNS(=O)(=O)c1ccc(Sc2ccc(NS(=O)(=O)c3ccc(C(F)(F)F)cc3Cl)nc2C(=O)C2CC2)cc1 [Compound 121, 2-Chloro-N-[6-cyclopropanecarbonyl-5-(4-ethylsulfamoyl-phenylsulfanyl)-pyridin-2-yl]-4-trifluoromethyl-benzenesulfonamide]"
6,< 1000,"CC(C)CC(=O)c1nc(NS(=O)(=O)c2ccc(Cl)cc2Cl)ccc1Sc1ccc(S(=O)(=O)N2CCOCC2)cc1 [Compound 80, 2,4-Dichloro-N-{6-(3-methyl-butyryl)-5-[4-(morpholine-4-sulfonyl)-phenylsulfanyl]-pyridin-2-yl}-benzenesulfonamide]"
7,< 10000,"CCc1nc(NS(=O)(=O)c2ccc(Cl)cc2Cl)ccc1Sc1ccc(S(=O)(=O)N2CCOCC2)cc1 [Compound 104, 2,4-Dichloro-N-{6-ethyl-5-[4-(morpholine-4-sulfonyl) -phenylsulfanyl]-pyridin-2-yl}-benzenesulfonamide]"
8,< 1000,"CCCC(=O)c1nc(NS(=O)(=O)c2ccc(Cl)cc2Cl)ccc1Sc1ccc(S(=O)(=O)C2CCCC2)cc1 [Compound 112, N-[6-Butyryl-5-(4-cyclopentanesulfonyl-phenylsulfanyl)-pyridin-2-yl]-2,4-dichloro-benzenesulfonamide]"
9,< 10000,"CCCOc1nc(NS(=O)(=O)c2ccc(Cl)cc2Cl)ncc1Oc1ccc(Cl)c(Cl)c1 [Compound 31, 2,4-Dichloro-N-[5-(3,4-dichloro-phenoxy)-4-propoxy-pyrimidin-2-yl]-benzenesulfonamide]"
10,< 10000,"Cc1nc(NS(=O)(=O)c2ccc(C(F)(F)F)cc2Cl)ncc1Sc1ccc2ccccc2c1 [Compound 59, 2-Chloro-N-[4-methyl-5-(naphthalen-2-ylsulfanyl)-pyrimidin-2-yl]-4-trifluoromethyl-benzenesulfonamide]"
11,< 1000,"O=C(c1nc(NS(=O)(=O)c2ccc(C(F)(F)F)cc2Cl)ccc1Sc1ccc(S(=O)(=O)C2CCOCC2)cc1)C1CC1 [Compound 102, 2-Chloro-N-{6-cyclopropanecarbonyl-5-[4-(tetrahydro-pyran-4-sulfonyl)-phenylsulfanyl]-pyridin-2-yl}-4-trifluoromethyl-benzenesulfonamide]"
12,< 1000,"CCCCNc1nc(NS(=O)(=O)c2ccc(Cl)cc2Cl)ncc1Sc1ccc(S(=O)(=O)N2CCCCC2)cc1 [Compound 14, N-{4-Butylamino-5-[4-(piperidine-1-sulfonyl)-phenylsulfanyl]-pyrimidin-2-yl}-2,4-dichloro-benzenesulfonamide]"
13,< 1000,"CCCC(=O)c1nc(NS(=O)(=O)c2ccc(C(F)(F)F)cc2Cl)ccc1Sc1ccc(S(=O)(=O)N2CCCCC2)cc1 [Compound 81, N-{6-Butyryl-5-[4-(piperidine-1-sulfonyl)-phenylsulfanyl]-pyridin-2-yl}-2-chloro-4-trifluoromethyl-benzenesulfonamide]"
14,< 10000,"O=C(O)c1nc(NS(=O)(=O)c2ccc(Cl)cc2Cl)ccc1Sc1ccc(S(=O)(=O)N2CCCCC2)cc1 [Compound 71, 6-(2,4-Dichloro-benzenesulfonylamino)-3-[4-(piperidine-1-sulfonyl)-phenylsulfanyl]-pyridine-2-carboxylic acid]"
15,< 1000,"CCC(=O)c1nc(NS(=O)(=O)c2ccc(Cl)cc2Cl)ccc1Sc1ccc(S(=O)(=O)N2CCOCC2)cc1 [Compound 86, 2,4-Dichloro-N-{5-[4-(morpholine-4-sulfonyl)-phenylsulfanyl]-6-propionyl-pyridin-2-yl}-benzenesulfonamide]"

# Continued, compound first:
row,SMILES,IC50 [nM]
1,"CC(C)CC(=O)c1nc(NS(=O)(=O)c2ccc(Cl)cc2Cl)ccc1Sc1ccc(S(=O)(=O)N2CCCCC2)cc1 [Compound 83, 2,4-Dichloro-N-{6-(3-methyl-butyryl)-5-[4-(piperidine-1-sulfonyl)-phenylsulfanyl]-pyridin-2-yl}-benzenesulfonamide]",< 1000
2,"CCCSc1nc(NS(=O)(=O)c2ccc(Cl)cc2Cl)ncc1Sc1ccc(S(=O)(=O)N2CCCCC2)cc1 [Compound 32, 2,4-Dichloro-N-{5-[4-(piperidine-1-sulfonyl)-phenylsulfanyl]-4-propylsulfanyl-pyrimidin-2-yl}-benzenesulfonamide]",< 1000
3,"Cc1nc(NS(=O)(=O)c2ccc(Cl)cc2Cl)ncc1Oc1ccc(Cl)c(Cl)c1 [Compound 60, 2,4-Dichloro-N-[5-(3,4-dichloro-phenoxy)-4-methyl-pyrimidin-2-yl]-benzenesulfonamide]",< 10000
4,"CCCCc1cc(NS(=O)(=O)c2ccc(C(F)(F)F)cc2Cl)nnc1Sc1ccc(S(=O)(=O)N2CCOCC2)cc1 [Compound 130, 3-(2′-chloro-4′-trifluoromethyl)phenylsulfonylamino-5-n-butyl-6-(4″-N-morpholinesulfonyl)phenylthiopyridazine]",< 1000
5,"CCCC(=O)c1nc(NS(=O)(=O)c2ccc(Cl)cc2Cl)ccc1Sc1ccc(S(=O)(=O)N2CCOCC2)cc1 [Compound 78, N-{6-Butyryl-5-[4-(morpholine-4-sulfonyl)-phenylsulfanyl]-pyridin-2-yl}-2,4-dichloro-benzenesulfonamide]",< 1000
6,"CCC(=O)c1nc(NS(=O)(=O)c2ccc(Cl)cc2Cl)ccc1Sc1ccc(S(=O)(=O)N2CCCCC2)cc1 [Compound 84, 2,4-Dichloro-N-{5-[4-(piperidine-1-sulfonyl)-phenylsulfanyl]-6-propionyl-pyridin-2-yl}-benzenesulfonamide]",< 1000
7,"Cc1nc(NS(=O)(=O)c2ccc(C(F)(F)F)cc2Cl)ccc1Sc1ccc(S(=O)(=O)N2CCCCC2)cc1 [Compound 66, 2-Chloro-N-{6-methyl-5-[4-(piperidine-1-sulfonyl) -phenylsulfanyl]-pyridin-2-yl}-4-trifluoromethyl-benzenesulfonamide]",< 1000
8,"CCNc1nc(NS(=O)(=O)c2ccc(Cl)cc2Cl)ncc1Sc1ccc(S(=O)(=O)N2CCCCC2)cc1 [Compound 13, 2,4-Dichloro-N-{4-ethylamino-5-[4-(piperidine-1-sulfonyl) -phenylsulfanyl]-pyrimidin-2-yl}-benzenesulfonamide]",< 1000
9,"CCCOc1nc(NS(=O)(=O)c2ccc(Cl)cc2Cl)ccc1Sc1ccc(S(=O)(=O)N2CCCCC2)cc1 [Compound 111, 2,4-Dichloro-N-{5-[4-(piperidine-1-sulfonyl)-phenylsulfanyl]-6-propoxy-pyridin-2-yl}-benzenesulfonamide]",< 10000
10,"CCc1nc(NS(=O)(=O)c2ccc(C(F)(F)F)cc2Cl)ccc1Sc1ccc(S(=O)(=O)N2CCOCC2)cc1 [Compound 105, 2-Chloro-N-{6-ethyl-5-[4-(morpholine-4-sulfonyl) -phenylsulfanyl]-pyridin-2-yl}-4-trifluoromethyl-benzenesulfonamide]",< 10000
11,"CCCC(=O)c1nc(NS(=O)(=O)c2ccc(C(F)(F)F)cc2Cl)ccc1Sc1ccc(S(=O)(=O)N2CCOCC2)cc1 [Compound 87, N-{6-Butyryl-5-[4-(morpholine-4-sulfonyl)-phenylsulfanyl]-pyridin-2-yl}-2-chloro-4-trifluoromethyl-benzenesulfonamide]",< 1000
12,"Cc1cc(S(=O)(=O)Nc2ccc(Sc3ccc(S(=O)(=O)N4CCCCC4)cc3)nn2)c(Cl)cc1Cl [Compound 140, 2,4-Dichloro-5-methyl-N-{6-[4-(piperidine-1-sulfonyl) -phenylsulfanyl]-pyridazin-3-yl}-benzenesulfonamide]",< 1000
13,"Cc1nc(NS(=O)(=O)c2ccc(C(F)(F)F)cc2Cl)ncc1Sc1ccc(S(=O)(=O)N2CCOCC2)cc1 [Compound 53, 2-Chloro-N-{4-methyl-5-[4-(morpholine-4-sulfonyl) -phenylsulfanyl]-pyrimidin-2-yl}-4-trifluoromethyl-benzenesulfonamide]",< 10000
14,"O=C(c1cc(NS(=O)(=O)c2ccc(C(F)(F)F)cc2Cl)ncc1Sc1ccc(S(=O)(=O)N2CCOCC2)cc1)C1CC1 [Compound 129, 2-Chloro-N-{4-cyclopropanecarbonyl-5-[4-(morpholine-4-sulfonyl)-phenylsulfanyl]-pyridin-2-yl}-4-trifluoromethyl-benzenesulfonamide]",< 1000

# Reference: patent US7893077B2, “Bisaryl-sulfonamides” (Amgen Inc., priority 2004, dated 2011)
